Measurements from US6608003B2, “Herbicidal solutions comprising fatty acid ammonium salts and dicarboxylic acid diesters and methods of using the same” (Falcon Lab LLC, priority 2000, dated 2003).

Experiments:
[1] = Solubility of the diester in 40% aqueous ammonium pelargonate solution; assay type: physicochemical; details: for amount of ester that dissolves in 100 g of 40% ammonium pelargonate to give a clear composition: 22 deg, successive additions of 99% ester; for dissolved diester content of the clear aqueous ammonium pelargonate composition: by weight, 40% (saturated) ammonium pelargonate solution
Procedure: A 40% solution of ammonium pelargonate was prepared by slowly adding 33 g. of 28% ammonium hydroxide to a stirred mixture of 89.3 g. of nonanoic acid (commercial pelargonic acid from Cognis Corp.) and 124.3 g. of distilled water.
To 361 gm. (2.29 mole) of technical pelargonic acid was added slowly with stirring a solution of 139 gm. of 28% ammonium hydroxide (2.29 mole NH3) in 500 ml. of deionized water.
A 40% solution of ammonium pelargonate was prepared by slowly adding 33 g. of 28% ammonium hydroxide to a stirred mixture of 89.3 g. of nonanoic acid (commercial pelargonic acid from Cognis Corp.) and 124.3 g. of distilled water. […]

Solubility in water = assay type: physicochemical

## COC(=O)CCCCCC(=O)OC [dimethyl pimelate, Dimethyl pimelate]
[1]
  amount of ester that dissolves in 100 g of 40% ammonium pelargonate to give a clear composition: 22.5 g
  dissolved diester content of the clear aqueous ammonium pelargonate composition: 17.9%
Solubility in water
  solubility in water (in words): insoluble in water

## COC(=O)CCCCCCC(=O)OC [dimethyl suberate, Dimethyl suberate]
[1]
  amount of ester that dissolves in 100 g of 40% ammonium pelargonate to give a clear composition: 19.3 g
  dissolved diester content of the clear aqueous ammonium pelargonate composition: 16.2%
Solubility in water
  solubility in water (in words): insoluble in water
